The conditions of data set [1]: published, cited from earlier work.
Data set [2] in a line: In vivo renal & hemodynamic assessment. Further details: species or system Sprague-Dawley rats. The source says: In vivo renal & hemodynamic Assessment: Sprague-Dawley (Harlan Sprague Dawley) rats (224-249 g) were housed in a temperature-controlled room on a 12:12-h light-dark cycle and fed standard chow (Harlan Teklad; Madison, Wis.) and water ad libitum for a period of at least 1 week before surgical procedures and experimental treatment. All procedures and experimental designs were in accordance with the guidelines of the American Association for Accreditation of Laboratory Animal Care (AAALAC) and approved by the University of Mississippi Medical Center's Institutional Animal Care and Use Committee. Animals were anesthetized using isoflurane delivered by an anesthesia machine (Vaporizer for Forane Anesthetic: Ohio Medical Products, Madison, Wis.). A midline lower abdominal incision was made, and the bladder was cannulated with flare-tipped PE-90 tubing for urine collection. Catheters of heat-stretched PE-50 tubing were inserted into the left femoral artery and right femoral vein for blood sampling and blood pressure monitoring. After implantation, each catheter was filled with a 50:50 solution of heparin and saline and exteriorized at the back of the neck. All animals were instrumented with a specially made Silastic catheter and steel bladder as described by Gellai and Valtin for renal clearance measurements (5). On complete instrumentation, all animals were allowed to recover for a period of 4 days.
Doses studied for assessment of renal toxicity range started at 1 mg/kg as a single dose infused at 0.015 mL/min over 1 hour. Incremental increases in dose were performed until 2 mg/kg was achieved. That dose was deemed to be nephrotoxic on the basis of a 16% reduction in mean glomerular filtration rate (GFR). […] In experimental studies, animals were treated with saline for up to 1 day and then placed in modified restraining cages for renal function measurements. Each animal served as their own control, prior to receiving AmB formulations. […] The femoral vein catheter was then connected to an infusion pump. Isotonic saline containing sodium [^125I]iothalamate and para-aminohippurate (PAH) was infused intravenously at a fixed rate of 3 mL/h After a 60-minute stabilization period, two 20-minute urine collections were obtained, followed by collection of blood samples. Urine volume was determined gravimetrically. Sodium and potassium concentrations in plasma and urine were measured by flame photometry. Glomerular filtration rate and effective renal plasma flow were calculated from the radioactivity of ^125I and concentration of PAH, respectively, in plasma and urine. PAH concentration was determined colorimetrically. Arterial pressure was monitored in conscious animals with a pressure transducer connected to a Grass model 7B chart recorder for continuous recording. […]

The next data set concerns Candida albicans. Kind of data set: Antifungal susceptibility testing of HPLC fractions, NCCLS broth microdilution (Example 1). The data set is classed as cell-based. How it is done:
Test Isolates: One Candida albicans isolate, American Type Culture Collection (ATCC) strain 90028, is selected.
Antifungal Susceptibility Testing: Sample MIC's are determined by broth microdilution according to NCCLS guidelines. Isolates are subcultured twice on potato dextrose agar (PDA) plates (Remei, Lenexa, Kans., USA). Fungal suspensions are prepared by transferring four to five colonies into about 5 mL of sterile about 0.9% saline. […] 100 uL of inoculum is added to each well of a microtiter tray containing 100 uL of serially diluted drug in RPMI solution. Sample concentrations of about 0.0039, about 0.0078, about 0.0156, about 0.0312, about 0.0624, about 0.125, about 0.25, about 0.5, about 1, about 2, and about 4 ug/mL are achieved. The trays are incubated in a humid, dark chamber for about 48 hours at about 35° C. […] MIC determinations are performed a minimum of two times with an additional run if the quantity of sample drug allowed for it. It is decided to determine the MFC on samples which achieved definitive MICs. After the MIC is read at 48-h, a 1 uL sample is withdrawn from each microtiter tray with a 96 pin replicator (Boekel, Feasterville, Pa.) and plated onto an RPMI agar plate. Samples are incubated in a humid, dark chamber for about 48 hours at about 35° C. MFC is determined by the complete lack of organism growth on the plate and recorded as the corresponding well in the MIC tray.

Another data set in a line: in vivo. Conditions: Balb/c, mouse.
The subject of data set [3] is IL-1β expression by THP-1 cells. Nature of the data set: In vitro infusion related reaction assay (IL-1β release, ELISA). As to conditions: FIG. 3 or 9. In general terms: In an ELISA, binding on a coated surface is turned into a signal by an enzyme label.
Protocol: Cells are then incubated for about 2 hours. Supernatants are collected from each well after three freeze-thaws and stored at about −70° C. until assay. Samples are assayed for IL-1β using an enzyme-linked immunosorbent assay (Cistron Biotechnology; Pine Brook, N.J.) (ELISA). The procedure involves a four-step test carried out in microtiter wells which are coated with IL-1β specific monoclonal antibody. […] There is no cross-reactivity for IL-1α, IL-2, TNF-α or interferon. […] Data are the mean of duplicate assays and are expressed in pg/mL on the basis of standards supplied by the manufacturer.
Supernatants were collected from each well after three freeze-thaws cycles and stored at −80° C. until assayed. Samples were assayed for interleukin-1β (IL-1β) using an enzyme-linked immunosorbent assay (Cistron Biotechnology; Pine Brook, N.J.).
The nature of data set [4]: Stability of AmBHP to pH and temperature during work up. The data set is classed as physicochemical. An excerpt: As a point in fact, AmBHP can be obtained with elution in ethanol containing 1% 1 N HCL (0.01 N HCl in water has a pH ˜2) if the pH during post-column work up is maintained between 5-7. Nor is the apparent purity of AmBHP adversely affected by a short exposure to pH ˜11, as occurs during solubilization with deoxycholate. However, at both extremes, AmBHP may degrade during evaporation of solvent under air/nitrogen or during lyophilization. […] During evaporation of solvent, the temperature of the heating block remained at about 40° C. or less. The presence of DMSO or DMF during drying/lyophilization or prolonged storage (even at −20° C.) may result in degradation.

The test system of the next data set is C. albicans ATCC 44858. Nature of the data set: Murine Candida albicans systemic infection model (survival, tissue burden). Type of data set: in vivo, Balb/c mice. How it is done:
Survival in an Infection Model: Evaluation of efficacy was performed in a murine Candida albicans systemic infection model. For each experiment, an isolate of C. albicans ATCC 44858 was thawed and then incubated overnight on Sabouraud dextrose agar (Unipath Limited). One colony was transferred into 25 mL of Sabouraud dextrose broth (Unipath Limited). The broth was incubated on an orbital mixer for 8 hours at 37° C., centrifuged to pellet the organisms, and then washed and resuspended in saline. Density was adjusted using optical density at 490 nm. Initial studies were performed in which 0.15-0.2 mL saline containing this Candida strain over a range of densities was injected intravenously to determine the optimum inoculum. The 90% lethal dose (LD90) was defined as the inoculum of the organism that caused 90% mortality 10 days post-infection. The inocula for the all isolates are estimated at 3-5×10^8 CFU/mL. These inocula were used in this study.
Specific-pathogen-free Balb/c mice (age 12-20 weeks) were obtained from IFFA Credo (L'Arbresle, France). Female mice were infected with 0.15-0.2 mL of C. albicans inoculum (4×10^8 CFU/mL) by injection into the lateral tail vein and then returned to their home cages. Post-infection viability counts were performed to ensure the correct inoculum had been given. […] At time of death or animal sacrifice, vital organs (liver, spleen, heart, bladder, muscle) were isolated and transferred into 2 mL cold sterile phosphate-buffered saline. Samples were frozen at −80° C. until analysis. At batch processing time, each sample was thawed and weighed. The organs were divided into 2 batches. Organs in one batch were homogenized in a tissue grinder for 14-30 seconds and then diluted 1:10, 1:100, and 1:1000. A 100 μL aliquot of each sample was plated on Sabourauds dextrous agar and incubated at 37° in a humidified incubator. Plates were examined daily for 7 days, and colony counts were recorded from all plates each day. The second batch of organ tissue was evaluated microscopically. Leukopenia was not induced by intraperitoneal administration of cyclophosphamide at 100 mg/kg 4 days before C. albicans inoculation due to the overall success of the model and the desire to maintain competency of the immune system.
Statistical Analysis: Animal survival between treated and untreated infected animals was selected as the primary outcome measure.

≈ marks a conversion by molar mass, not a printed value. Entries after “also recorded” stand apart in the source; their conditions may differ. Like-named read-outs stand apart in the source and are kept apart here.

For the molecule `CC1/C=C/C=C/C=C/C=C/C=C/C=C/C=C/C(OC2OC(C)C(O)C(N)C2O)CC2OC(O)(CC(O)CC(O)C(O)CCC(O)CC(O)CC(=O)OC(C)C(C)C1O)CC(O)C2C(=O)O` (stereo not drawn) [AmB, Amphotericin B], the “LD50, average parenteral dose” value in data set [1] (OF-1, CD-1 and Balb/c mice) is reported as 2.78 mg/kg. Moreover, the “LD50, range” value in data set [1] (OF-1, CD-1 and Balb/c mice) was 2.3 to 3.46 mg/kg. Also, the LD50 (commonly the dose expected to kill half of the subjects tested) in data set [1] (fasting mice) was 1.51 mg/kg; in data set [1] (fed animals) it was 2.38 mg/kg; in the data set “in vivo”, around 2.5 mg/kg. Moreover, the “mean GFR” value in data set [2] (rats, 2 mg/kg over one hour) came out at 1.92 mL/min. The MIC in the data set with Candida albicans (100% inhibition vs control, 48 hours at 35° C., Candida albicans B311 (footnote 1), read-out: Median MIC100) is 0.25 µg/mL (≈ 0.271 µM). Moreover, the MIC80 – broadly, an inhibitory concentration at the 80% level, which refers to growth in some studies and to a panel of isolates in others – with Candida albicans (Candida albicans, 48 h, read-out: Median MIC80) is 0.1 µg/mL (≈ 0.108 µM). The MFC (in general, the lowest tested concentration that kills the fungus rather than only halting it) against Candida albicans (Candida albicans, ATCC90028, fungicidal to all cells, no growth on agar plates, footnotes 1,2: C. albicans B311, ATCC 90028) came out at 0.625 µg/mL (≈ 0.676 µM).
For the molecule `CC1/C=C/C=C/C=C/C=C/C=C/C=C/C=C/C(OC2OC(C)C(O)C(N)C2O)CC2OC(O)(CC(O)CC(O)C(O)CCC(O)CC(O)CC(=O)OC(C)C(C)C1O)CC(O)C2C(=O)O` (stereo not drawn) [AmBHP, Amphotericin B Highly Purified], the “general toxicity in vivo (apparent LD50 and survival of Candida-infected mice), less than generic or lipid-complexed AmB” value was “roughly 2 fold”. The “cytokine (IL-1β) response, comparison in words” value in data set [3] is reported as “Less cytokine is expressed; also recorded: less of a cytokine response than did AmB; also recorded: failed to further increase cytokine release at concentrations as high as 21.6 μM”. Further, in data set [4] (pH between ˜2 and ˜11, short-term), the “stability on exposure to variations in pH” value is on record as “does not appear to adversely affect AmB”. The stability to temperature result in data set [4] (post-column work up) is on record as “may degrade at high temperature”. Moreover, the “other indices of cardio-renal function” value in data set [2] (doses 10-fold outside the range of toxicity for AmB) was “not adversely affected”. For the same molecule, in data set [2] (rats, 20 mg/kg over one hour), the “mean GFR” value is 2.03 mL/min and the “renal function (GFR), decrease as percent control” value came to 7.9%. The “toxicity by ability of THP-1 cells to exclude trypan blue” value in the data set with THP-1 cells was “less disruptive to the cell membrane than is commercial deoxycholate-formulated AmB”. Further, in the data set with C. albicans ATCC 44858 (0.5 mg/kg, 5 days post infection), the “mortality in infected mice” value is listed as 20%. For the same molecule, the “activity against fungi in blood” value in the data set on C. albicans ATCC 44858 (blood) was “as effective against blood-borne fungi as was Pharma-Tek AmB”. In the data set with C. albicans ATCC 44858 (compared to AmB), the “colony counts from lungs and livers” value is “lower colony counts”. Also, the “C. albicans tissue burden, efficacy” value in the data set with C. albicans ATCC 44858 (post-mortem liver, spleen, heart, kidney, lung and blood) was “comparable to those of Pharma-Tek® AmB and AmBLC”.
